In patent US20110111437A1, “Biomarkers For Prognosis of Pulmonary Diseases” (THE UNIVERSITY OF PITTSBURGH-OF THE COMMONWEALTH SYSTEM OF …, priority 2009, published 2011):

System: CD4+CD28null T cells from lung transplant recipients with BOS
Assay: Inhibition of proliferation by cyclosporine A (BrdU incorporation, anti-CD3 stimulation)
Assay type: cell-based, human
Conditions: preliminary findings, n=2 subjects
Protocol: Inhibition of Proliferation by Cyclosporine A (CsA) Segregated CD28+ and CD28null CD4 T-cell subpopulations were individually cultured in duplicate wells coated with anti-CD3 monoclonal antibody (OKT3) (see above). Autologous nurse cells, positively selected during the initial CD4 T-cell isolations (see above) were added in a 3:1 nurse cell:CD4 T-cell ratio. In order to eliminate potential confounding by CD4dim monocytes, all CD4+ cells were depleted from the nurse cells (<<1% residual), prior to their use in cultures, by positive selection with anti-CD4-coated magnetic beads (Invitrogen, Carlsbad, Calif.). Cyclosporine (Novartis, East Hanover, N.J.) to a final concentration of 100 ng/ml was added to half the wells. Proliferation within the respective CD4 subpopulations were measured by bromodeoxyuridine (BrdU) incorporation, using reagents and methods supplied in a kit (BD Pharmingen). In brief, BrdU in a final concentration of 10 μM was added to cultures two days prior to their harvests. After 5±1 days of culture, cells were harvested from wells and stained with anti-CD4, fixed and permeabilized, and then incubated with anti-BrdU and 7-amino-actinomycin (7-AAD). The proportion of proliferating CD4+ T cells (BrdU+) among the viable cells (≧diploid DNA content) was determined by flow cytometry.

C=CC[C@@H]1/C=C(\C)C[C@H](C)C[C@H](OC)[C@H]2O[C@@](O)(C(=O)C(=O)N3CCCC[C@H]3C(=O)O[C@H](/C(C)=C/[C@@H]3CC[C@@H](O)[C@H](OC)C3)[C@H](C)[C@@H](O)CC1=O)[C@H](C)C[C@@H]2OC [tacrolimus]
resistance of the cells to the drug: relatively resistant
